Measurements: US20090286876A1, “NEUROPROTECTIVE BENZOATE AND BENZAMIDE COMPOUNDS” (Samaritan Pharmaceuticals, Inc., priority 2003, published 2009)
Where two headings read alike, the source gives them in different places.

What was measured:
[1] = tested on: PC12 cells; test: Reversal of Aβ1-42-induced ATP depletion (ATPLite-M assay); details: for ATP decrease induced by Aβ1-42, Aβ1-42 control = 100% reduction: 24 h pre-incubation, 24 h; for effect on Aβ1-42-induced ATP decrease, in words: compound 1-100 μM, Aβ1-42 0.1-10 μM
[2] = tested on: PC12 cells; test: Aβ1-42-induced free radical production (2,7-DCF fluorescent probe); details: compound 1-100 μM 24 h pre-incubation; Aβ1-42 0.1-10 μM 24 h
[3] = target: σ2-receptor (Homo sapiens, UniProt Q5BJF2); test: σ2-receptor binding
[4] = cited from earlier work
[5] = tested on: PC12 cells; test: Neuroprotection against Aβ1-42 cytotoxicity, MTT assay (NADPH diaphorase activity); format: cell-based, rat
[6] = tested on: HMG-CoA reductase mRNA; test: HMG-CoA reductase mRNA synthesis, real-time quantitative PCR; format: cell-based, rat
[7] = target: T1, sigma-1 receptor (Homo sapiens, UniProt Q99720); test: Displacement of [3H](+)pentazocine from sigma-1 receptor expressed in Jurkat cells; format: binding
T1 construct: sigma-1 receptor expressed in Jurkat cells; endogenous in cells; host or cells: Jurkat cells

[8] = tested on: PC12 cells; test: Glutamate-induced excitotoxicity, MTT assay; format: cell-based, rat; details: glutamate 100 μM 24 h; for neuroprotective effect against glutamate-induced cell death (MTT), in words: compound 0.3-30 μM 24 h pre-incubation
[9] = compound 1-100 μM, Aβ1-42 0.1-10 μM

T1 sequence (Q99720 whole entry): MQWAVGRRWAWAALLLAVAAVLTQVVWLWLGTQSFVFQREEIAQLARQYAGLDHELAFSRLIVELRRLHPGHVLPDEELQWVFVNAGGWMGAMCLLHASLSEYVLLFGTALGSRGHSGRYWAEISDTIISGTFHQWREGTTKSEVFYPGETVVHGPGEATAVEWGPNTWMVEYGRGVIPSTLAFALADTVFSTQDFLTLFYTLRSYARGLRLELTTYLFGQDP
Sequence of σ2-receptor (Q5BJF2 whole entry, species assumed): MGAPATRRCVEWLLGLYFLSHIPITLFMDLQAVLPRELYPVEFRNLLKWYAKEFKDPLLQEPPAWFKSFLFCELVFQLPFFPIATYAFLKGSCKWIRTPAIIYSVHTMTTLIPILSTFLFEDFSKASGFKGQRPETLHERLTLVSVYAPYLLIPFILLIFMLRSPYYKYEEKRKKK

| Compound | ATP decrease induced by Aβ1-42, Aβ1-42 control = 100% reduction ([1]; compound 1 μM, Aβ1-42 0.1 μM) | ATP decrease induced by Aβ1-42, Aβ1-42 control = 100% reduction ([1]; compound 1 μM, Aβ1-42 1 μM) | ATP decrease induced by Aβ1-42, Aβ1-42 control = 100% reduction ([1]; compound 1 μM, Aβ1-42 10 μM) | ATP decrease induced by Aβ1-42, Aβ1-42 control = 100% reduction ([1]; compound 10 μM, Aβ1-42 0.1 μM) | ATP decrease induced by Aβ1-42, Aβ1-42 control = 100% reduction ([1]; compound 10 μM, Aβ1-42 1 μM) | ATP decrease induced by Aβ1-42, Aβ1-42 control = 100% reduction ([1]; compound 10 μM, Aβ1-42 10 μM) | ATP decrease induced by Aβ1-42, Aβ1-42 control = 100% reduction ([1]; compound 100 μM, Aβ1-42 0.1 μM) | ATP decrease induced by Aβ1-42, Aβ1-42 control = 100% reduction ([1]; compound 100 μM, Aβ1-42 1 μM) | ATP decrease induced by Aβ1-42, Aβ1-42 control = 100% reduction ([1]; compound 100 μM, Aβ1-42 10 μM) | effect on Aβ1-42-induced ATP decrease, in words [1] | effect on Aβ1-42-induced free radical production, in words [2] | protective effect against Aβ1-42 neurotoxicity (MTT), in words [5, 9] | further results |
| --- | --- | --- | --- | --- | --- | --- | --- | --- | --- | --- | --- | --- | --- |
| CCN(CC)CC(=O)Nc1c(C)cccc1C [Lidocaine, (2-diethylamino)-N-(2,6-dimethylphenyl)-acetamide] | 38.7 ± 26.1 % | 62.0 ± 8.5 % | 53.5 ± 20.3 % | 47.2 ± 28.7 % | 69.0 ± 13.0 % | 65.0 ± 7.6 % | 65.3 ± 45.2% | 81.3 ± 8.7% | 70.1 ± 4.8 % | restored ATP concentrations in PC12 cells exposed to 0.1 and 1 μM Aβ1-42 | exhibited a trend to reduce the Aβ1-42-induced free radical production |  |  |
| CCN(CC)CCNC(=O)c1ccc(N)cc1 [Procainamide] | 46.8 ± 25.9 % | 51.4 ± 17.3 % | 56.5 ± 11.6 % | 60.4 ± 5.8 % | 61.7 ± 10.8 % | 56.2 ± 6.1 % | 40.9 ± 14.5 % | 40.8 ± 6.5 % | 52.2 ± 10.2 % | significantly prevented the Aβ1-42-induced decrease of intracellular ATP levels | exhibited a trend to reduce the Aβ1-42-induced free radical production |  |  |
| CCN(CC)CCOC(=O)c1ccc(N)cc1 [Procaine, 4-aminobenzoic acid 2-(diethylamino)ethyl ester] | 64.0 ± 24.4 % | 67.8 ± 13.8 % | 86.8 ± 5.5% | 56.0 ± 16.4 % | 97.0 ± 45.5% | 89.8 ± 5.1% | 42.8 ± 16.9 % | 69.6 ± 12.1 % | 83.6 ± 20.6% | protected against the 0.1 μM Aβ1-42-induced depletion of ATP concentrations in a dose-dependent manner | exhibited a trend to reduce the Aβ1-42-induced free radical production | important protective effect against 0.1 and 1 μM Aβ1-42 induced toxicity | IC50 [3]: > 10 µM; pKa [4]: 8.9; reduction of the NADPH diaphorase inhibition induced by Aβ1-42 ([5]; 1 and 10 μM procaine): at least 30%; basal level of HMG-CoA reductase mRNA, in words ([6]; control PC12 cells, no Aβ1-42): did not affect; level of HMG-CoA reductase mRNA induced by Aβ1-42, in words ([6]; procaine 1 or 10 μM 18 h pre-incubation, Aβ1-42 1 μM 24 h): decreased in a dose-dependent manner; Hill coefficient (nH) [7]: 1.0; IC50 [7]: 4.3 µM; neuroprotective effect against glutamate-induced cell death (MTT), in words [8]: prevented the glutamate-induced neurotoxicity in a biphasic manner |
| CCN1CCN(OC(=O)c2ccc(OC)c(OC)c2OC)CC1 [SP008, (4-ethylpiperazinyl-1-yl)-2′,3′,4′-trimethoxybenzoate] |  |  |  |  |  |  |  |  |  |  |  |  | neuroprotective effect against glutamate-induced cell death (MTT), in words [8]: more important than that of procaine effect at the same concentration; concentration of maximum (peak) protective effect against glutamate ([8]; compound tested at 0.3-30 μM): 3 µM |
| CC(=O)OC1CC(O)C2(C)C(OC(C)=O)C3C(CC(C)C12)OC(=O)C3CN1CCN(C(=O)c2ccccc2)CC1 (stereo not drawn) [SP015, Acetic acid 7-acetoxy-3-(4-benzoyl-piperazin-1-yl-methyl)-5-hydroxy-4a, 8-dimethyl-2-oxo-dodecahydro-azuleno[6,5-b]furan-4-yl ester] | 46.3 ± 10.1 % | 55.6 ± 5.3 % | 32.8 ± 9.4 % | 99.2 ± 13.1% | 124 ± 24.7% | 104 ± 22.5% | 91.5 ± 1.5% | 85.6 ± 12.3% | 73.8 ± 6.8 % | able to reverse the effect of Aβ1-42 on ATP | amplified the Aβ1-42-induced free radicals production | protected only at 1 and 10 μM concentrations against the highest concentration of Aβ1-42 |  |
| CC(=O)OC1CC(OC(C)=O)C2(C)C(O)C3C(CC(C)C12)OC(=O)C3CN1CCN(C(=O)c2ccccc2)CC1 (stereo not drawn) [SP016, acetic acid 5-acetoxy-3-(4-benzoyl-piperazin-1-yl-methyl)-4-hydroxy-4a, 8-dimethyl-2-oxo-dodecahydro-azuleno[6,5-b]furan-7-yl ester] | 49.5 ± 10.2 % | 81.5 ± 4.2% | 96.8 ± 30.6% | 101 ± 7.8% | 105 ± 10.1% | 110 ± 10.1% | 86.3 ± 15.7% | 100 ± 17.8% | 121 ± 29.0% |  | amplified the Aβ1-42-induced free radicals production | no protective activity |  |
| CC1=CCC23OC2(C)CCC2C(CN4CCN(C(=O)c5ccccc5)CC4)C(=O)OC2C13 (stereo not drawn) [SP017, 3-(4-benzoyl-piperazin-1-yl-methyl)-6,6a-epoxy-6,9-dimethyl-3a,4,5,6,6a,7,9a,9b-octahydro-3H-azuleno[4,5-b]furan-2-one] | 28.1 ± 7.2 % | 42.6 ± 5.8 % | 73.0 ± 12.1 % | 54.9 ± 15.6 % | 44.9 ± 8.1 % | 68.9 ± 7.3 % | 115 ± 21.4% | 108 ± 20.8% | 122 ± 6.7% | able to reverse the effect of Aβ1-42 on ATP | amplified the Aβ1-42-induced free radicals production | at 100 μM potentiated the toxic effect of Aβ1-42 | efficacy range, inhibition of Aβ1-42 toxicity (mitochondrial diaphorase activity) [5]: 30-70% |
| CCCCNc1ccc(C(=O)OCCN(C)C)cc1 [Tetracaine] | 54.8 ± 4.0 % | 32.2 ± 5.5 % | 45.5 ± 6.1 % | 59.5 ± 9.6 % | 58.0 ± 18.9 % | 41.9 ± 4.2 % | 59.3 ± 10.5 % | 45.4 ± 2.2 % | 45.8 ± 6.5 % | significantly prevented the Aβ1-42-induced decrease of intracellular ATP levels | exhibited a trend to reduce the Aβ1-42-induced free radical production |  |  |
| (+)-MK801 |  |  |  |  |  |  |  |  |  |  |  |  | protective effect against Aβ1-42 neurotoxicity (MTT), in words [5]: lessens in a dose-dependent manner PC12 cell viability decrease induced by Aβ1-42 |
| Aβ1-42: 42 amino acid β-amyloid peptide purchased from American Peptide Co., used as neurotoxic insult |  |  |  |  |  |  |  |  |  |  |  |  | HMG-CoA mRNA synthesis ([6]; Aβ1-42 1 μM, 24 h, compared to control PC12 cells): 1.48±0.17 times the control level |
